# Measured values as given in PMC6107127, “Characteristics of the mitochondrial and cellular uptake of MPP^+, as probed by the fluorescent mimic, 4'I-MPP^+” (PLoS ONE, 2018).
# Tests used:
# MN9D cells [1] = experiment: Intracellular ATP levels; format: cell-based, mouse; conditions: 100 μM, 6 h at 37 °C
# Method: Cells grown in 12-well plates were treated with 100 μM MPP^+ or 4'I-MPP^+ in KRB-HEPES for 6 h at 37 °C. After the treatments, cells were suspended in 1 mL of ice-cold KRB-HEPES and 50 μL samples were withdrawn for protein quantification. The remaining cell suspensions were centrifuged for 3 min at 3,500 x g at 4 °C and the cell pellets were treated with 1 mL of lysis buffer (0.1 M Tris, 1% Triton X-100, pH 7.5) for 2 min and centrifuged at 3,500 x g for 3 min to remove the cell debris. The ATP contents of the supernatants were measured using a fluorometric ATP assay kit (BioVision, Milpitas CA, USA) following the manufacture’s guidelines. All ATP levels were normalized to the protein content of each sample.
# [2] = system: isolated MN9D cell mitochondria; experiment: Uptake into isolated MN9D cell mitochondria; set-up: species or system mouse; conditions: 400 μM, 45 min at 37 °C
# Method: Intact mitochondria were isolated from MN9D cells according to the published procedure of Frezza et al.. The isolated intact mitochondrial preparations were suspended in KCl buffer and aliquots (5 μL) were withdrawn for protein determination. Desired amounts of mitochondrial suspensions were incubated with 400 μM MPP^+ or 4'I-MPP^+ in KCl buffer for 45 min at 37 °C. After the incubation, incubates were centrifuged at 7,000 x g at 4 °C for 10 min and the mitochondrial pellets were treated with 75 μL of 0.1 M HClO4.
# MN9D cells [3] = experiment: Intracellular ROS (DCFH-DA); format: cell-based, mouse; conditions: 100 μM, 1 h at 37 °C
# Method: Cells grown in 12-well plates were incubated with 10 μM DCFH-DA in KRB-HEPES for 1 h. […] After the incubations, cells were washed, harvested, solubilized with 0.1 M Tris buffer (pH 7.5) containing 1% Triton X-100, and cell debris were removed by centrifugation at 13,200 x g for 8 min at 4 °C. The content of ROS-oxidized DCFH product, 2',7'-dichlorofluorescein (DCF) in the supernatants were quantified by fluorescence (Ex/Em 488/524 nm). The data were normalized to the protein contents of individual samples. ROS productions in DCFH-DA (50 μM) loaded 250 μM 4'I-MPP^+ treated (4 h) live MN9D cells were visualized by confocal fluorescence microscopy at Ex/Em 488/524 nm using a Leica TCS SP5II microscope.
# [4] = system: rat brain mitochondrial complex-I (NADH: ubiquinone oxidoreductase); experiment: Ubiquinone dependent NADH oxidation (complex-I inhibition); format: biochemical; conditions: 200 μM
# Method: Isolated rat brain mitochondria were lysed by freeze-thawing in hypotonic media containing 25 mM K3PO4 and 5 mM MgCl2, pH 7.2 [22]. The complex-I (i.e. NADH: ubiquinone oxidoreductase) activity of mitochondrial membrane fragments were determined according to the procedure of Birch-Machin and Turnbull. Briefly, mitochondrial membranes (50 μg protein) were incubated with 130 μM NADH (final concentration) and Antimycine A (2 μg/mL) in a 1.0 mL assay solution containing 25 mM K3PO4, 5 mM MgCl2, 2 mM KCN, 2.5 mg/mL bovine serum albumin, pH 7.2, for 2 min at 37 °C with or without rotenone, MPP^+ or 4'I-MPP^+ (for further details see the corresponding figure legends). The complex-I mediated ubiquinone dependent NADH oxidation was initiated by adding ubiquinone-1 to a final concentration of 65 μM and the initial rates of the reactions were monitored by following the decrease in absorbance at 340 nm with respect to 425 nm reference wavelength for 5 min.
# MN9D cells [5] = experiment: Chromatin condensation test for apoptosis (DAPI); format: cell-based, mouse; conditions: 250 μM, 12 h
# Method: MN9D cells grown in glass-bottomed plates were treated with 250 μM MPP^+ or 4'I- MPP^+ for 12 h and then with 300 nM DAPI in KRB-HEPES for 15 min in the dark at 37 °C [24]. Then cells were rinsed and PBS was added to cover the cell layer. Increase in nuclear DAPI fluorescence (Ex/Em at 358/461 nm) due to chromatin condensation was observed using a Nikon ECLIPSE Ti-S inverted fluorescence microscope. The controls were treated similarly except that MPP^+ or 4'I-MPP^+ was omitted from the initial incubation medium.
# [6] = Relative HPLC elution times and hydrophobicities; format: physicochemical
# HepG2 cells = experiment: MTT cell viability assay; format: cell-based, human
# Method: Cell viability was determined by the MTT [3-(4,5-dimethylthiazol-2-yl)-2,5-diphenyltetrazolium bromide)] assay. Briefly, cells were seeded on 96-well plates and allowed to grow to about 70–80% confluence. Prior to the experiment, culture media was replaced with KRB-HCO3^- containing desired concentrations of MPP^+ or 4'I-MPP^+ and incubated for 16 h at 37 °C. After the incubation, 10 μL of 5 mg/mL MTT solution was added to each well and incubated for 2 h at 37 °C. The resulting formazan was solubilized by the addition of 210 μL detergent solution [50% DMF/H2O (v/v), 20% SDS (w/v)] followed by incubation at 37 °C for 12 h. The cell viabilities were determined by quantifying solubilized formazan by measuring the difference in the absorbance at 570 nm and 650 nm. Results were expressed as % viability of MPP^+ or 4'I-MPP^+ treated cells with respect to control cells, which were treated under the same conditions except in the absence of the MPP^+ or 4'I-MPP^+.
structure (smiles),measurement,setting,value
"C[n+]1ccc(-c2ccc(I)cc2)cc1 [4'I-MPP^+, 1-methyl-4-(4'-iodophenyl)pyridinium]",effect on intracellular ATP levels,MN9D cells [1],deplete intracellular ATP levels
same,rate of uptake into isolated mitochondria,[2],faster than that of MPP^+
same,effect on ROS production,MN9D cells [3],increase ROS production
same,inhibition of the complex-I activity,[4],46%
same,apoptotic cell death (chromatin condensation),MN9D cells [5],cause apoptotic MN9D cell death
same,relative elution time (hydrophobicity),[6]; Buffer:CH3CN 70:30,11.76
same,relative elution time (hydrophobicity),[6]; Buffer:CH3CN:MeOH 60:30:10,8.88
same,relative elution time (hydrophobicity),[6]; Buffer:CH3CN:MeOH 65:25:10,12.56
same,HepG2 cell toxicity,"HepG2 cells; MPP+ at 0–1000 μM, 4'I-MPP+ at 0–200 μM, 16 h",resistant
same,concentration above which toxic to HepG2 cells,"HepG2 cells; rough estimates, data not shown",above 250 μM
